Source: US8871762B2, “Plant disease controlling composition and method for controlling plant disease” (Sumitomo Chemical Company, Limited, priority 2010, dated 2014)
Read-outs that look alike come from different tables or passages of the source.

System: gray mold fungus (Botrytis cinerea)
Assay: Cucumber leaf disk preventive test against gray mold fungus
Assay type: in vivo
Details: for pest or weed control at 0.5 ppm / pest or weed control at 5 ppm: Botrytis cinerea, foliar, 96 h, read-out: preventive value (%)
Experimental: True leaf of cucumber is punched out with cork borer to 13 mm in diameter to prepare a leaf disk. In 24 well microwell plate that is dispensed with 1 ml 0.8% water agar, the leaf disk is placed such that the upper side of the leaf is in an upward direction. Thereto is added 20 micro liter a testing solution prepared by mixing a dimethyl sulfoxide solution of the present compound (racemate) and a dimethyl sulfoxide solution of isopyrazam, boscalid or penthiopyrad to a predetermined concentration to treat the leaf disk.
After confirming that the testing medical solution is dried, conidium of gray mold fungus (Botrytis cinerea) is suspended into potato dextrose broth (DIFCO) in a density of about 10^5 conidium/mL and is then subjected to a spray inoculation. After leaving to stand the leaf disk in a growth chamber set up at 15° C. for four days, an onset area on the leaf is measured and then calculated an onset area rate (hereinafter, referred to as an onset area rate of treated group).
The same operation is carried out with 20 micro liter water instead of 20 micro liter a testing medicine solution to calculate an onset area rate (hereinafter, referred to an onset area rate of non-treated group).
A preventive value is calculated from the above onset area rate of treated group and the onset area rate of non-treated group by the following equation: Preventive value(%)=100×(A−B)/A
A: an onset area rate of treated group
B: an onset area rate of non-treated group […]
For comparison, the same operations as described in Test Example 1 are carried out with the exception that the testing medicine solution is substituted with a predetermined concentration of each dimethyl sulfoxide solution of isopyrazam, boscalid or penthiopyrad, so as to calculate respective preventive values.

[1] = carboxamide compound alone, 0.5 ppm, cucumber leaf disk, 15° C., four days
[2] = carboxamide compound alone, 5.0 ppm, cucumber leaf disk, 15° C., four days

| Compound | preventive value (%) [1] [%] | preventive value (%) [2] [%] | pest or weed control at 0.5 ppm [1] [%] | pest or weed control at 5 ppm [2] [%] | further results |
| --- | --- | --- | --- | --- | --- |
| COC(=O)[C@@H](C)N(C(=O)Cc1ccccc1)c1c(C)cccc1C [benalaxyl-M] | 10 | 15 |  |  |  |
| O=C(Nc1ccccc1-c1ccc(Cl)cc1)c1cccnc1Cl [boscalid] |  |  | 49 | 56 |  |
| C[C@@H](NC(=O)C(C#N)C(C)(C)C)c1ccc(Cl)cc1Cl (stereo partly drawn) [diclocymet] |  |  |  |  | pest or weed control at 0.5 ppm: 10%; pest or weed control at 5 ppm: 15% |
| COc1ccc(C(=CC(=O)N2CCOCC2)c2ccc(Cl)cc2)cc1OC [dimethomorph] |  |  | 10 | 15 |  |
| CC1(C(=O)Nc2ccc(O)c(Cl)c2Cl)CCCCC1 [fenhexamid] |  |  | 20 | 57 |  |
| O=C(NCCc1ncc(C(F)(F)F)cc1Cl)c1ccccc1C(F)(F)F [fluopyram] |  |  | 35 | 45 |  |
| Cc1nn(C)c(Cl)c1C(=O)Nc1cccc2c1C(C)OC2(C)C (stereo not drawn) [furametpyr] | 15 | 20 |  |  |  |
| CC(C)C1C2CCC1c1c(NC(=O)c3cn(C)nc3C(F)F)cccc12 (stereo not drawn) [isopyrazam] | 20 | 40 |  |  |  |
| N#Cc1ccccc1NC(=O)c1snc(Cl)c1Cl [isotianil] | 10 | 25 |  |  |  |
| COCC(=O)N(c1c(C)cccc1C)N1CCOC1=O [oxadixyl] |  |  |  |  | pest or weed control at 0.5 ppm: 10%; pest or weed control at 5 ppm: 15% |
| O=C(Nc1ccccc1)N(Cc1ccc(Cl)cc1)C1CCCC1 [pencycuron] |  |  | 10 | 15 |  |
| CC(C)CC(C)c1sccc1NC(=O)c1cn(C)nc1C(F)(F)F (stereo not drawn) [penthiopyrad] |  |  | 39 | 45 |  |
